Assay results taken from patent US6140362A, “Method for inhibiting the growth of mammalian cells” (Rohm and Haas Company, priority 1997, dated 2000).
Where two headings read alike, the source gives them in different places.

Legend:
[1] = tested on: mouse lymphoma cell line L5178Y; assay: Growth inhibition of mouse lymphoma cells (L5178Y), 48 h; format: cell-based; conditions: for inhibition at 20 µM: 20 micromolar; for inhibition at 50 µM: 50 micromolar; for inhibition at 2 µM: 2 micromolar; for inhibition at 10 µM: read-out: Inhibition of growth; for inhibition at 4 µM: 4 micromolar
Experimental: Effects of compounds on growth of mouse lymphoma cell line L5178Y, were determined as follows. Cells were grown in Fischer's medium (obtained from Life Technologies, Inc., Gaithersburg, Md.) containing 0.24 grams per liter (g/l) sodium pyruvate, 1.12 g/l surfactant (Pluronic F-68, from BASF Corporation, Parsippany, N.J.), and 10% by volume (10% v/v) heat-inactivated horse serum (obtained from Life Technologies, Inc) at 37° C. To 30 ml aliquots of cell suspension (2×10^4 cells per milliliter (mL)) in exponential growth phase were added test compounds dissolved in dimethylsulfoxide (DMSO) at various concentrations such that the final DMSO concentration in the mixtures was 0.25%. Tubes were gassed with 5% CO2 then incubated on a roller drum apparatus. After 48 hours the cells were treated with 0.1% trypsin (Life Technologies, Inc.,) for 10 minutes and counted in a Coulter Counter equipped with a 140 micrometer (μM) aperture. Percent inhibition of growth was calculated by comparing the number of cells in assays containing test compound with the number of cells in controls lacking the test compound.

[2] = tested on: Leukemia (SR); assay: Growth inhibition of human tumor cell lines: Leukemia (SR); format: cell-based; conditions: cell line A = Leukemia (SR), NCI testing
Experimental: (§1) Selected compounds were evaluated by the National Cancer Institute, Bethesda, Md. against 60 human tumor cell lines according to procedures described in Principles and Practices of Oncology, volume 3, issue number 10, pp. 1-12. Results of the testing against representative cell lines including the test compound number, and the GI50 values (μM) are set forth in Table 3. The GI50 value is the concentration required to inhibit cell growth by 50% as compared to untreated control cultures.

[3] = tested on: Melanoma (SKMEL-2); assay: Growth inhibition of human tumor cell lines: Melanoma (SKMEL-2); format: cell-based; conditions: SK-MEL-2, cell line F = Melanoma (SKMEL-2), NCI testing
Experimental: as §1

[4] = tested on: CNS cancer (SF539); assay: Growth inhibition of human tumor cell lines: CNS cancer (SF539); format: cell-based; conditions: SF-539, cell line E = CNS cancer (SF539), NCI testing
Experimental: as §1

[5] = tested on: Nonsmall cell lung cancer (NCIH522); assay: Growth inhibition of human tumor cell lines: Nonsmall cell lung cancer (NCIH522); format: cell-based; conditions: NCI-H522, cell line B = Nonsmall cell lung cancer (NCIH522), NCI testing
Experimental: as §1

[6] = tested on: Small cell lung cancer (DMS 114); assay: Growth inhibition of human tumor cell lines: Small cell lung cancer (DMS 114); format: cell-based; conditions: cell line C = Small cell lung cancer (DMS 114), NCI testing
Experimental: as §1

[7] = tested on: Renal cancer (CAKI1); assay: Growth inhibition of human tumor cell lines: Renal cancer (CAKI1); format: cell-based; conditions: CAKI-1, cell line H = Renal cancer (CAKI1), NCI testing
Experimental: as §1

[8] = tested on: Colon cancer (HCT116); assay: Growth inhibition of human tumor cell lines: Colon cancer (HCT116); format: cell-based; conditions: HCT-116, cell line D = Colon cancer (HCT116), NCI testing
Experimental: as §1

[9] = tested on: tubulin; assay: Inhibition of microtubule assembly; format: biochemical, calf; conditions: preincubated 1 h at 37° C.
Experimental: Compounds were evaluated for their ability to inhibit tubulin assembly into microtubules by comparing the extent of cold-reversible assembly in the presence of each test compound with controls lacking the test compound. Tubulin was isolated from calf brain tissue by two cycles of assembly/disassembly as described by Vallee, R. B. in Methods in Enzymology, vol. 134, pp. 89-104. Assay mixtures contained 1 mg/ml of purified tubulin in 1 M sodium glutamate, pH 6.6, 1 millimolar (mM) MgCl2, and the test compound, which was added as a solution in DMSO. The final concentration of DMSO in each assay was 2% (v/v). Assay mixtures were preincubated at 37° C. for 1 h, then chilled on ice for 5 min. Microtubule assembly was initiated by addition of guanosine triphosphate (0.1 mM), and incubation at 37° C. Assembly was followed turbidimetrically at 350 nm for 20 minutes (min) using a temperature-controlled cell in a Cary 2200 spectrophotometer. Since microtubules undergo depolymerization at 0° C., assembly was confirmed by measuring the reduction in turbidity following incubation for 30 min at 0° C. The difference in absorbance before and after incubation for 30 min at 0° C. (ΔA350) represents the extent of microtubule assembly. Inhibition of assembly was calculated by subtracting the (ΔA350) values for treatments with test compounds from the (ΔA350) for controls without test compound, and expressing this difference as a percentage of the (ΔA350) value for the control. Results including test compound number, test compound concentration in micromoles per liter (μM) and percent inhibition are set forth in Table 11.

[10] = tested on: Ovarian cancer (OVCAR8); assay: Growth inhibition of human tumor cell lines: Ovarian cancer (OVCAR8); format: cell-based; conditions: OVCAR-8, cell line G = Ovarian cancer (OVCAR8), NCI testing
Experimental: as §1

## CC(C)(NC(=O)c1cc(Cl)sc1Cl)C(=O)CCl [Compound 52]
[1]; 48 hours
  inhibition at 20 µM: 89%

## CC(C)C(C)(NC(=O)c1cc(Cl)cc(Cl)c1)C(=O)CCl (centres unmarked) [Compound 38]
[1]; 48 hours
  inhibition at 50 µM: 66%

## CC(C)(NC(=O)c1cc(Cl)cc(Cl)c1)C(=O)C(Cl)Br (centres unmarked) [Compound 15]
[2]
  GI50: 2.85 µM
[3]
  GI50: 16.6 µM
[1]; 48 hours
  inhibition at 2 µM: 90%
[4]
  GI50: 10.8 µM
[5]
  GI50: 1.29 µM
[6]
  GI50: 6.65 µM
[7]
  GI50: 10.8 µM
[8]
  GI50: 10.4 µM
[9]; 50 μM
  Percent inhibition of microtubule assembly: 94.6%
[10]
  GI50: 12.1 µM

## CCC(C)(NC(=O)c1ccc(NC(=O)OC)cc1)C(=O)CCl (centres unmarked) [Compound 1]
[1]; 48 hours
  inhibition at 2 µM: 92%

## CC(C)CC(C)(NC(=O)c1cc(Cl)cc(Cl)c1)C(=O)C(Br)Br (centres unmarked) [Compound 9]
[1]; 48 hours
  inhibition at 2 µM: 97%

## CCC(C)(NC(=O)c1cc(Cl)c(C)c(Br)c1)C(=O)CCl (centres unmarked) [Compound 30]
[1]; 48 hours
  inhibition at 20 µM: 97%

## CC(C)(NC(=O)c1cc(Cl)cc(Cl)c1)C(=O)CBr [Compound 29]
[1]; 10 micromolar, 48 hours
  inhibition at 10 µM: 95%

## CC(C)(NC(=O)c1ccccc1)C(=O)CCl [Compound 39]
[1]; 48 hours
  inhibition at 50 µM: 96%

## CCC(C)(NC(=O)c1cc(Cl)cc(Br)c1)C(=O)C(Br)Br (centres unmarked) [Compound 41]
[9]; 5 μM
  Percent inhibition of microtubule assembly: 76.0%

## CCC(C)(NC(=O)c1cc(F)cc(F)c1)C(=O)CCl (centres unmarked) [Compound 34]
[1]; 48 hours
  inhibition at 20 µM: 88%

## CCC(C)(NC(=O)c1ccc2ncsc2c1)C(=O)CCl (centres unmarked) [Compound 55]
[1]; 10 micromolar, 48 hours
  inhibition at 10 µM: 97%

## CC(C)(NC(=O)c1cc(Cl)nc(Cl)c1)C(=O)C(Br)Br [Compound 42]
[1]; 48 hours
  inhibition at 2 µM: 98%

## CC(C)(NC(=O)c1cc(Cl)nc(Cl)c1)C(=O)CCl [Compound 43]
[1]; 48 hours
  inhibition at 4 µM: 92%

## CC(C)(NC(=O)c1cc(Cl)cc(Cl)c1)C(=O)CN=C=S [Compound 27]
[1]; 48 h
  inhibition at 10 µM: 61%

## CC(C)C(C)(NC(=O)c1cc(Cl)cc(Cl)c1)C(=O)C(Br)Br (centres unmarked) [Compound 8]
[1]; 48 hours
  inhibition at 2 µM: 83%

## CC(C)(NC(=O)c1cc(Br)c(Br)s1)C(=O)CCl [Compound 47]
[1]; 48 hours
  inhibition at 20 µM: 96%

## CCC(C)(NC(=O)c1cc(F)c(F)c(F)c1)C(=O)CCl (centres unmarked) [Compound 37]
[1]; 48 hours
  inhibition at 50 µM: 96%

## CCC(C)(NC(=O)c1cc(C)cc(Br)c1)C(=O)CCl (centres unmarked) [Compound 5]
[1]; 48 hours
  inhibition at 2 µM: 91%
[9]; 50 μM
  Percent inhibition of microtubule assembly: 88.7%

## CC(C)(NC(=O)c1cc(Cl)cc(Cl)c1)C(=O)C(Cl)Cl [Compound 40]
[1]; 48 hours
  inhibition at 50 µM: 92%

## CCC(C)(NC(=O)c1cccc(C=NOC)c1)C(=O)CCl (centres unmarked) [Compound 24]
[1]; 10 micromolar, 48 hours
  inhibition at 10 µM: 96%

## CCC(C)(NC(=O)c1cc(Cl)c2nc(C)oc2c1)C(=O)CCl (centres unmarked) [Compound 57]
[1]; 10 micromolar, 48 hours
  inhibition at 10 µM: 97%

## CCC(C)(NC(=O)c1cc(Cl)cc(C#N)c1)C(=O)CCl (centres unmarked) [Compound 3]
[1]; 48 hours
  inhibition at 2 µM: 94%

## CCCC(C)(NC(=O)c1cc(Cl)cc(Cl)c1)C(=O)C(Br)Br (centres unmarked) [Compound 11]
[1]; 48 hours
  inhibition at 2 µM: 88%

## CCC(C)(NC(=O)c1cc(Br)c(C)c(Br)c1)C(=O)CCl (centres unmarked) [Compound 21]
[1]; 48 hours
  inhibition at 4 µM: 97%

## CCC(C)(NC(=O)c1ccc2ocnc2c1)C(=O)CCl (centres unmarked) [Compound 54]
[1]; 48 hours
  inhibition at 50 µM: 36%

## CCC(C)(NC(=O)c1cc(Cl)c(C)c(Cl)c1)C(=O)CCl (centres unmarked) [Compound 32]
[1]; 48 hours
  inhibition at 20 µM: 96%

## CCC(C)(NC(=O)c1cccnc1)C(=O)CCl (centres unmarked) [Compound 45]
[1]; 48 hours
  inhibition at 50 µM: 36%

## CCC(C)(NC(=O)c1cccc(C#N)c1)C(=O)CCl (centres unmarked) [Compound 20]
[1]; 48 hours
  inhibition at 4 µM: 96%

## CC(C)(NC(=O)C(Cl)(Cl)Cl)C(=O)CCl [Compound 59]
[1]; 48 hours
  inhibition at 4 µM: 91%

## CCCC(NC(=O)c1cc(Cl)cc(Cl)c1)C(=O)C(Br)Br (centres unmarked) [Compound 6]
[1]; 48 hours
  inhibition at 2 µM: 75%

## CC(C)(NC(=O)c1cccs1)C(=O)C(Br)Br [Compound 49]
[1]; 48 hours
  inhibition at 2 µM: 97%

## CCC(C)(NC(=O)c1cc(Cl)c(Cl)c(Cl)c1)C(=O)CCl (centres unmarked) [Compound 33]
[1]; 48 hours
  inhibition at 20 µM: 94%
[9]; 50 μM
  Percent inhibition of microtubule assembly: 12.2%

## CCC(C)(NC(=O)c1ccccc1)C(=O)CCl (centres unmarked) [Compound 36]
[1]; 48 hours
  inhibition at 50 µM: 91%

## CCC(C)(NC(=O)c1cccc(NC(=O)OC)c1)C(=O)CCl (centres unmarked) [Compound 22]
[1]; 10 micromolar, 48 hours
  inhibition at 10 µM: 96%

## CCC(C)(NC(=O)c1ccc(C)s1)C(=O)CCl (centres unmarked) [Compound 48]
[1]; 48 hours
  inhibition at 50 µM: 97%

## CC(C)(NC(=O)c1cccs1)C(=O)CCl [Compound 51]
[1]; 48 hours
  inhibition at 50 µM: 95%

## CCC(C)(NC(=O)c1ccc2ncoc2c1)C(=O)CCl (centres unmarked) [Compound 53]
[1]; 48 hours
  inhibition at 50 µM: 95%

## CCC(C)(NC(=O)c1cc(C)cc(Cl)c1)C(=O)CCl (centres unmarked) [Compound 25]
[1]; 10 micromolar, 48 hours
  inhibition at 10 µM: 95%
[9]; 50 μM
  Percent inhibition of microtubule assembly: 30.9%

## CCC(CC)(NC(=O)c1cc(Cl)cc(Cl)c1)C(=O)C(Br)Br [Compound 12]
[1]; 48 hours
  inhibition at 2 µM: 85%

## CCC(C)(NC(=O)c1cc(Cl)c2ncoc2c1)C(=O)CCl (centres unmarked) [Compound 56]
[1]; 10 micromolar, 48 hours
  inhibition at 10 µM: 81%

## CCC(C)(NC(=O)c1cccc(Cl)c1)C(=O)CCl (centres unmarked) [Compound 35]
[1]; 48 hours
  inhibition at 20 µM: 95%
[9]; 50 μM
  Percent inhibition of microtubule assembly: 17.9%

## CC(C)(NC(=O)c1ccccc1)C(=O)C(Br)Br [Compound 16]
[1]; 48 hours
  inhibition at 2 µM: 98%

## CCC(C)(NC(=O)c1cc(Cl)c(F)c(Cl)c1)C(=O)CCl (centres unmarked) [Compound 31]
[1]; 48 hours
  inhibition at 20 µM: 97%

## CCC(C)(NC(=O)c1ccc(Cl)nc1)C(=O)CCl (centres unmarked) [Compound 46]
[1]; 48 hours
  inhibition at 50 µM: 84%

## CCCCCC(C)(NC(=O)c1cc(Cl)cc(Cl)c1)C(=O)C(Br)Br (centres unmarked) [Compound 10]
[1]; 48 hours
  inhibition at 2 µM: 96%

## CCC(C)(NC(=O)c1ccc(Br)o1)C(=O)C(Br)Br (centres unmarked) [Compound 50]
[1]; 10 micromolar, 48 hours
  inhibition at 10 µM: 95%

## CCC(C)(NC(=O)c1cc(Cl)c(N)c(C=NOC)c1)C(=O)CCl (centres unmarked) [Compound 18, 4-amino-3-chloro-5-methoxyiminomethyl-N-(3-chloro-1-ethyl-1-methyl-2-oxopropyl)benzamide]
[1]; 48 hours
  inhibition at 2 µM: 94%

## CC(C)(NC(=O)C1CCCCC1)C(=O)CCl [Compound 58]
[1]; 48 hours
  inhibition at 50 µM: 77%

## CC(C)(NC(=O)C(Cl)(Cl)Cl)C(=O)C(Br)Br [Compound 60]
[1]; 48 hours
  inhibition at 2 µM: 98%
